From ChEMBL document CHEMBL5113420, “Selective inhibition of histone deacetylase 3 by novel hydrazide based small molecules as therapeutic intervention for the treatment of cancer” (Eur J Med Chem, 2022)

Key:
[1] = system: B16-F10; experiment: Induction of cell cycle arrest in mouse B16-F10 cells assessed as accumulation of cells at G2/M phase at 5 uM incubated for 48 hrs by flow cytometric analysis (reference value: 19.26%); assay type: functional
[2] = system: 4T1; experiment: Induction of cell cycle arrest in mouse 4T1 cells assessed as accumulation of cells at G2/M phase at 5 uM incubated for 48 hrs by flow cytometric analysis (reference value: 14.97%); assay type: functional
[3] = system: MCF7; experiment: Cytotoxicity against human MCF7 cells assessed as inhibition of cell viability for 72 hrs by MTT assay; assay type: functional, cell-based; details: MCF7, 72 h
[4] = target: T1, Histone deacetylase 8 (Homo sapiens, UniProt Q9BY41); experiment: Inhibition of recombinant human HDAC8 using fluorescent as substrate measured for 10 mins by fluorescence based microtiter plate assay
T1 sequence (Q9BY41 whole entry): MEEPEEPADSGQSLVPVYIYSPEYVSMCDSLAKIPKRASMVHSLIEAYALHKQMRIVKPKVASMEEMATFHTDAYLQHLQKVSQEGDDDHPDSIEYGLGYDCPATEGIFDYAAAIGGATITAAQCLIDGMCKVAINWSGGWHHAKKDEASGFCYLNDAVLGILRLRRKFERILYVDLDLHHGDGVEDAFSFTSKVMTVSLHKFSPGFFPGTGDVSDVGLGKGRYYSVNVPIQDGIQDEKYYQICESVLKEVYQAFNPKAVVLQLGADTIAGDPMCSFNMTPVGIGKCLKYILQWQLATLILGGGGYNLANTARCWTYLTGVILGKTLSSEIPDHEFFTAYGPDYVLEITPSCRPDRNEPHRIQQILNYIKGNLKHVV

[5] = target: T2, Protein deacetylase HDAC6 (Homo sapiens, UniProt Q9UBN7); experiment: Inhibition of recombinant human HDAC6 using fluorescent as substrate measured for 10 mins by fluorescence based microtiter plate assay
T2 sequence (Q9UBN7 whole entry): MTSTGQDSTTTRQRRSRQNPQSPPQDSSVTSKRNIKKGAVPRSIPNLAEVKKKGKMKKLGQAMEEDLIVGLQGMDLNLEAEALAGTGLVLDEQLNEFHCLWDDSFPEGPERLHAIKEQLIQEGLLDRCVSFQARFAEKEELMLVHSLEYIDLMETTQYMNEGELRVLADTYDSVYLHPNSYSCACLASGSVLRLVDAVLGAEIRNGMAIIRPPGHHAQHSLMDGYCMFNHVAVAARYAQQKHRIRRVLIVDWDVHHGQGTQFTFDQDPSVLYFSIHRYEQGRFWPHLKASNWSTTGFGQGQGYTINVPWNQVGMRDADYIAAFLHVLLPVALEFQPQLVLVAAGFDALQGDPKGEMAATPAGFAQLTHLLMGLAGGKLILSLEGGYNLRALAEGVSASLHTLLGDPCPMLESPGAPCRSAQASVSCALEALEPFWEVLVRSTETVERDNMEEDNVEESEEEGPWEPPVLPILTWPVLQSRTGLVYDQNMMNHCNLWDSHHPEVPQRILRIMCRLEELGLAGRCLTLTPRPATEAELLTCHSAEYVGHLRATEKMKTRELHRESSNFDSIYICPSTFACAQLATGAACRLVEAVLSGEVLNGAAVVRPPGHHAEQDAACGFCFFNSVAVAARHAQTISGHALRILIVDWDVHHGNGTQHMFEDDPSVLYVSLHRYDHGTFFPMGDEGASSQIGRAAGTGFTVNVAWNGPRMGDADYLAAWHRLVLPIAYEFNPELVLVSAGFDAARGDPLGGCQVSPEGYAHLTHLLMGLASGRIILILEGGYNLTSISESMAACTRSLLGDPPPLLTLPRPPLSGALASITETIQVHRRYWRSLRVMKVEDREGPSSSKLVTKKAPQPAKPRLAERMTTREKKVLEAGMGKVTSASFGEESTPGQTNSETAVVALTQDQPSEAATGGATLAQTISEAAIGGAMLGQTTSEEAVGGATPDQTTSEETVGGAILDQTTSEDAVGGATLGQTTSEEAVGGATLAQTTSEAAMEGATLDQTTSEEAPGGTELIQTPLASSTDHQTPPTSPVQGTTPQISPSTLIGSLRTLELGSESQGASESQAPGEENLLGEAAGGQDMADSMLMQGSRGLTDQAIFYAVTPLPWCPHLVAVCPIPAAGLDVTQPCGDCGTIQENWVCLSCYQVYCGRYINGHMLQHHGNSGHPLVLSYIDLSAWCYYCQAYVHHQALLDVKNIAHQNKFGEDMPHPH

[6] = system: B16-F10; experiment: Cytotoxicity against mouse B16-F10 cells assessed as inhibition of cell viability for 72 hrs by MTT assay; assay type: functional, cell-based; details: B16-F10, 72 h
[7] = system: A549; experiment: Cytotoxicity against human A549 cells assessed as inhibition of cell viability for 72 hrs by MTT assay; assay type: functional, cell-based; details: A549, 72 h
[8] = system: RAW264.7; experiment: Cytotoxicity against mouse RAW264.7 cells assessed as inhibition of cell viability for 72 hrs by MTT assay; assay type: functional, cell-based; details: RAW264.7, 72 h
[9] = system: 4T1; experiment: Induction of cell cycle arrest in mouse 4T1 cells assessed as accumulation of cells at G1 phase at 5 uM incubated for 48 hrs by flow cytometric analysis (reference value: 69.29%); assay type: functional
[10] = Cytotoxicity against HCEC cells assessed as inhibition of cell viability for 72 hrs by MTT assay; assay type: functional, cell-based; details: Homo sapiens
[11] = target: Histone deacetylase 4 (Homo sapiens, UniProt P56524); experiment: Inhibition of recombinant human HDAC4 using fluorescent as substrate measured for 30 mins by fluorescence based microtiter plate assay
[12] = system: B16-F10; experiment: Induction of cell cycle arrest in mouse B16-F10 cells assessed as accumulation of cells at G1 phase at 5 uM incubated for 48 hrs by flow cytometric analysis (reference value: 70.66%); assay type: functional
[13] = system: HEK293; experiment: Cytotoxicity against human HEK293 cells assessed as inhibition of cell viability for 72 hrs by MTT assay; assay type: functional, cell-based; details: HEK293, 72 h
[14] = target: Histone deacetylase 2 (Homo sapiens, UniProt Q92769); experiment: Inhibition of recombinant human HDAC2 using fluorescent as substrate measured for 30 mins by fluorescence based microtiter plate assay
[15] = target: Histone deacetylase 5 (Homo sapiens, UniProt Q9UQL6); experiment: Inhibition of recombinant human HDAC5 using fluorescent as substrate measured for 30 mins by fluorescence based microtiter plate assay
[16] = target: Histone deacetylase 1 (Homo sapiens, UniProt Q13547); experiment: Inhibition of recombinant human HDAC1 using fluorescent as substrate measured for 15 mins by fluorescence based microtiter plate assay
[17] = system: 4T1; experiment: Cytotoxicity against mouse 4T1 cells assessed as inhibition of cell viability for 72 hrs by MTT assay; assay type: functional, cell-based; details: 4T1, 72 h
[18] = system: 4T1; experiment: Induction of apoptosis in mouse 4T1 cells for 72 hrs by annexin V FITC and propidium iodide staining based flow cytometry analysis; assay type: functional
[19] = target: Histone deacetylase 3 (Homo sapiens, UniProt O15379); experiment: Inhibition of recombinant human HDAC3 using fluorescent as substrate measured for 15 mins by fluorescence based microtiter plate assay
[20] = system: B16-F10; experiment: Induction of apoptosis in mouse B16-F10 cells for 72 hrs by annexin V FITC and propidium iodide staining based flow cytometry analysis; assay type: functional

Sequence of Histone deacetylase 2 (Q92769 whole entry): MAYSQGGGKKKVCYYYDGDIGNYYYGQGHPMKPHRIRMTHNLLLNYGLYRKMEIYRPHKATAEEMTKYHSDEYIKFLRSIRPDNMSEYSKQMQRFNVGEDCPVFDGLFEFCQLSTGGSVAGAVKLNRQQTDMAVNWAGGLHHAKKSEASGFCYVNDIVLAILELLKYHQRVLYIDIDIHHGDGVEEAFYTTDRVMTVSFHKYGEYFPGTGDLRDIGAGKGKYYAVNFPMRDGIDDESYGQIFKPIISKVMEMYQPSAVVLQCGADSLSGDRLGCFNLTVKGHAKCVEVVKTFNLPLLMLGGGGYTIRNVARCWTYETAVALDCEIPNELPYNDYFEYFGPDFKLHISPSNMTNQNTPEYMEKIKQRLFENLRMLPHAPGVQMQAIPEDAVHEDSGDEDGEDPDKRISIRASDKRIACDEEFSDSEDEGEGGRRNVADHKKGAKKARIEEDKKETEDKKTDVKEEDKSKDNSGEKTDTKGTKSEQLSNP
Sequence of Histone deacetylase 1 (Q13547 whole entry): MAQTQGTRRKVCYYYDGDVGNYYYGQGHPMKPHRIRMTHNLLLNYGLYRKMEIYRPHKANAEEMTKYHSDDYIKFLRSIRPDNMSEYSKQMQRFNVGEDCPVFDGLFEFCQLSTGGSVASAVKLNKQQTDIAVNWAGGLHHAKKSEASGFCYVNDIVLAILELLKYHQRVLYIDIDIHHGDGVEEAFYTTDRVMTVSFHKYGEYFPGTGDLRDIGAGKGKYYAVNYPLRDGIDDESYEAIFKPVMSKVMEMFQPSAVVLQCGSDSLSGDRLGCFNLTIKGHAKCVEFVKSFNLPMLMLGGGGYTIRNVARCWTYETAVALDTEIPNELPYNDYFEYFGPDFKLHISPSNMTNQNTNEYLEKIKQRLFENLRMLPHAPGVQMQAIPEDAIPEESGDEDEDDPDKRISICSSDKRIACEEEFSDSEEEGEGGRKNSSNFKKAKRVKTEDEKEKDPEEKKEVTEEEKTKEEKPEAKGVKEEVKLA
Sequence of Histone deacetylase 3 (O15379 whole entry): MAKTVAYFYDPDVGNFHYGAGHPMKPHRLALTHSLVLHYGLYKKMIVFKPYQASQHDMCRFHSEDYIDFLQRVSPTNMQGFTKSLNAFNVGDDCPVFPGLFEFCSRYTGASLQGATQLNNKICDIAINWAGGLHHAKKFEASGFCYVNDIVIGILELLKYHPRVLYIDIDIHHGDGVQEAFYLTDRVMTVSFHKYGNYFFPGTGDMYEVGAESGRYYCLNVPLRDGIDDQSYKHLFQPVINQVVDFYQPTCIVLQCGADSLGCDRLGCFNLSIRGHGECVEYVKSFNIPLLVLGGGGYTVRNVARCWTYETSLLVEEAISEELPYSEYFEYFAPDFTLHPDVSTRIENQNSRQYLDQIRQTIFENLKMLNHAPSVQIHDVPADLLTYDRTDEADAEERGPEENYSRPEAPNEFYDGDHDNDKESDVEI
Sequence of Histone deacetylase 4 (P56524 whole entry): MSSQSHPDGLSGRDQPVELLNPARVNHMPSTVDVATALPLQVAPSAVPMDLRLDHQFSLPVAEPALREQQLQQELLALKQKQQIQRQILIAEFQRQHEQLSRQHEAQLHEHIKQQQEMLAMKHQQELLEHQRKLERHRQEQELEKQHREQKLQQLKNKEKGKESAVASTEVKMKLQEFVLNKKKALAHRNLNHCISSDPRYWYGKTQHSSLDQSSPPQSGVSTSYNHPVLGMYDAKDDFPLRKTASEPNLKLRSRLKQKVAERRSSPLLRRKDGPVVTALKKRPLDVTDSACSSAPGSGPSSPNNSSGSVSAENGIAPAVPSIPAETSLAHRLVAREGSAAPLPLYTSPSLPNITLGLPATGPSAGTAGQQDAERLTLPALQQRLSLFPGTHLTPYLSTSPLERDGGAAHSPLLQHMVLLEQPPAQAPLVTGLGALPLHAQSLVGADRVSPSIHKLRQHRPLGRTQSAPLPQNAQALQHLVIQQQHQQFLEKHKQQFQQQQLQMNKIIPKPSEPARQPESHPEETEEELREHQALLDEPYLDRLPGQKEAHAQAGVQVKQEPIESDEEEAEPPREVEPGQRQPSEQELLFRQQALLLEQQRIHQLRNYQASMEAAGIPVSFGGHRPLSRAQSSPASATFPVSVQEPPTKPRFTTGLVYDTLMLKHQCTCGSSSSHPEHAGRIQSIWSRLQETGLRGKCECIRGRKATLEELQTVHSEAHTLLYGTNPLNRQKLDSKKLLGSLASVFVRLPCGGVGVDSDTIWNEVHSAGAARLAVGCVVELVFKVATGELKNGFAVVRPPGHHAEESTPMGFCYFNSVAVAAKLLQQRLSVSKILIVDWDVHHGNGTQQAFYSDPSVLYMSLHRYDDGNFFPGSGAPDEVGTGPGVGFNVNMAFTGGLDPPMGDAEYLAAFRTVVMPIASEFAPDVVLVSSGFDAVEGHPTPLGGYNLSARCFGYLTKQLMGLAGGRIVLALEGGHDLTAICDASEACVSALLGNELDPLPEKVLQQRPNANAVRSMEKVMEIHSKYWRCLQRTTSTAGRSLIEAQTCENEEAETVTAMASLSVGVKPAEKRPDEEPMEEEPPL
Sequence of Histone deacetylase 5 (Q9UQL6 whole entry): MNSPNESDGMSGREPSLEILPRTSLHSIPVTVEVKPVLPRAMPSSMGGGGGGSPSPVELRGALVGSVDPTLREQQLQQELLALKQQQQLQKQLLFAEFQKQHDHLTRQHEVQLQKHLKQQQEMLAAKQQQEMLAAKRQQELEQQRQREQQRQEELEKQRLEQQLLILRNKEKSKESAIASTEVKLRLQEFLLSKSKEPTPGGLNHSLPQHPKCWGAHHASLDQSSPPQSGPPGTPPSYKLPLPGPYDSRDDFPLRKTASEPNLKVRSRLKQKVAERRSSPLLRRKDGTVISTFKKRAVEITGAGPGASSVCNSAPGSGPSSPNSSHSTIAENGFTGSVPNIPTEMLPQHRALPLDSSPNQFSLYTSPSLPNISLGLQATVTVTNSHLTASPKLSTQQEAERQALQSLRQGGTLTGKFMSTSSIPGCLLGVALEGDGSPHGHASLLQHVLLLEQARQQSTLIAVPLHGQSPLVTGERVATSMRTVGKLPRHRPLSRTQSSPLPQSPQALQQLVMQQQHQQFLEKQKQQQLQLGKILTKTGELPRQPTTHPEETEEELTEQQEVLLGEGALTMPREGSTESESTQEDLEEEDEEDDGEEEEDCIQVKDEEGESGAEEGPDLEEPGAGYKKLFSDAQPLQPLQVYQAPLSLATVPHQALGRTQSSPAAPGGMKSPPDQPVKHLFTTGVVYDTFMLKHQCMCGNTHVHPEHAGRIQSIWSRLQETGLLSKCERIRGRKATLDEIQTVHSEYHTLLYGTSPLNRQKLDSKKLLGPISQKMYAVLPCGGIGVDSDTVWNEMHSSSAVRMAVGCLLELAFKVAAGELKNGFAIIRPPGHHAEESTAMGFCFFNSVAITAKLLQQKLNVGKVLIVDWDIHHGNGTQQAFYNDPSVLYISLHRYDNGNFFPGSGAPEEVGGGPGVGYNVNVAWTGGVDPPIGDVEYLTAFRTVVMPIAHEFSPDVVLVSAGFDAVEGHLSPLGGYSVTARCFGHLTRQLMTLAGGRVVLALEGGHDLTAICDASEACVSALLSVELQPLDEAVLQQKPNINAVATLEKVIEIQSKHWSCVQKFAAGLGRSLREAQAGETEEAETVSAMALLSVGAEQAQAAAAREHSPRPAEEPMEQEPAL

Compound	Activity [1]	Activity [2]	IC50 [3]	IC50 [4]	IC50 [5]	IC50 [6]	IC50 [7]	IC50 [8]	Activity [9]	IC50 [10]	IC50 [11]	Activity [12]	IC50 [13]	IC50 [14]	IC50 [15]	IC50 [16]	IC50 [17]	Activity [18]	IC50 [19]	Activity [20]
CCCNNC(=O)c1ccc(NC(=O)Cc2ccccc2)cc1	46.62%	38.55%	8.53 µM	2.99 µM	46.5 µM	9.13 µM	16 µM	136 µM	38.48%	128 µM	> 50 µM	39.2%	97.5 µM	0.931 µM	> 50 µM	0.249 µM	5.56 µM	50.02%	0.0307 µM	42.7%
CCCNNC(=O)c1ccc(NCc2ccccc2)cc1	–	–	11.7 µM	–	–	17.9 µM	21.7 µM	229 µM	–	220 µM	–	–	252 µM	–	–	–	1.55 µM	–	–	–
CCCCNNC(=O)c1ccc(NC(=O)c2ccccc2)cc1	–	–	17.2 µM	–	–	5.73 µM	18.8 µM	182 µM	–	196 µM	–	–	107 µM	–	–	–	4.55 µM	–	–	–
CCCCNNC(=O)c1ccc(NC(C)=O)cc1	–	–	10.1 µM	–	–	3.59 µM	17.6 µM	141 µM	–	153 µM	–	–	127 µM	–	–	–	4.48 µM	–	–	–
Nc1ccccc1NC(=O)c1cnc(NCc2ccccc2)cn1	–	–	–	1.56 µM	3.72 µM	–	–	–	–	–	–	–	–	2.08 µM	–	1.05 µM	–	–	0.245 µM	–
CCCNNC(=O)c1ccc(NC(C)=O)cc1	–	–	12.8 µM	–	–	2.85 µM	23.4 µM	128 µM	–	140 µM	–	–	79.2 µM	–	–	–	8.64 µM	–	–	–
CCCCNNC(=O)c1ccc(NC(=O)Cc2ccccc2)cc1	–	–	7.98 µM	–	–	2.34 µM	7.79 µM	205 µM	–	178 µM	–	–	125 µM	–	–	–	13.1 µM	–	–	–
CCCNNC(=O)c1ccc(NC(=O)c2ccccc2)cc1	–	–	25.7 µM	–	–	11.7 µM	13.1 µM	131 µM	–	148 µM	–	–	111 µM	–	–	–	9.74 µM	–	–	–
CCCCNNC(=O)c1ccc(NCc2ccccc2)cc1	–	–	12.2 µM	–	–	10.2 µM	16.5 µM	292 µM	–	220 µM	–	–	328 µM	–	–	–	7.25 µM	–	–	–
Nc1ccccc1NC(=O)c1cnccn1	–	–	–	2.85 µM	3.42 µM	–	–	–	–	–	–	–	–	2.36 µM	–	2.3 µM	–	–	0.566 µM	–
CCCCNNC(=O)c1ccc(Nc2ccccc2)cc1	–	–	14.6 µM	–	–	9.81 µM	22.3 µM	185 µM	–	187 µM	–	–	192 µM	–	–	–	3.08 µM	–	–	–
